Series [1] addresses T1, Calpain-1 catalytic subunit (Homo sapiens, UniProt P07384).
T1 sequence (P07384 whole entry): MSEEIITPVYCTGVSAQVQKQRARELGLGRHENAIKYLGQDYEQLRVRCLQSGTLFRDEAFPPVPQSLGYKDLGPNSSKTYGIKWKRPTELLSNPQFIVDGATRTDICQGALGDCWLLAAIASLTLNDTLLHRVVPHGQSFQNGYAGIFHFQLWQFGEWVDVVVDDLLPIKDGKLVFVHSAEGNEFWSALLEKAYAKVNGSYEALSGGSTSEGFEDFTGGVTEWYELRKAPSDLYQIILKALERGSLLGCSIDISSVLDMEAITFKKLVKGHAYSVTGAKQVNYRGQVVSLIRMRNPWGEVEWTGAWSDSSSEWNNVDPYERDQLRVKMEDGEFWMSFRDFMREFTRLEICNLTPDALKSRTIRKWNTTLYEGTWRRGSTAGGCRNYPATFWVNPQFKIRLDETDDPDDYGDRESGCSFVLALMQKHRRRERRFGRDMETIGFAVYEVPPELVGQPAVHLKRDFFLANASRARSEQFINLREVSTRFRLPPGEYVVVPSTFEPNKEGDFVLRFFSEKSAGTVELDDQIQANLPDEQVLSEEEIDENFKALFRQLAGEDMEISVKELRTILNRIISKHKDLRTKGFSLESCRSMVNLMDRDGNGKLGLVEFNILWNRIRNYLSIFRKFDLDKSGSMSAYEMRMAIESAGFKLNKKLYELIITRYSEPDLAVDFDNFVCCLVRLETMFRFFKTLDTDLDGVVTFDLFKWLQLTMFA
The experiment in a line: Inhibition of human calpain 1 using (DABCYL)-TPLKSPPPSPR-(EDANS) as substrate incubated for 30 mins in presence of calcium ions and GSH and measured after 30 mins by fluorescence based assay.

Series [2] addresses T2, Replicase polyprotein 1ab (Severe acute respiratory syndrome coronavirus 2, UniProt P0DTD1). The experiment in a line: Inhibition of SARS-CoV-2 3CLpro using Dabcyl-KTSAVLQSGFRKM-Glu(Edans) as substrate preincubated for 1 hrs in presence of 2 mM GSH followed by substrate addition and measured after 30 mins by FRET assay. Particulars: read-out: IC50.
A further series has as its system Human coronavirus 229E. The experiment in a line: Antiviral activity against HCoV-229E expressing renilla luciferase reporter gene infected in human Huh-7 cells pre-infected […] for 1 hr followed by compound addition and measured after 6 hrs by luciferase based assay. It is filed as functional, organism-based.
Series [3] deals with Replicase polyprotein 1ab (Severe acute respiratory syndrome coronavirus 2) (UniProt P0DTD1). Description: Binding affinity to SARS-CoV-2 3CLpro assessed as change in melting temperature at 40 uM measured after 30 mins by SYPRO Orange staining based thermal shift assay.
Series [4] is described as follows: Inhibition of human cathepsin 1 using QXL520/HiLyteFlour 488 as substrate preincubated for 60 mins and measured after 30 mins by fluorescence based assay.
In series [5] the target is T2, Replicase polyprotein 1ab. The experiment in a line: Inhibition of SARS-CoV-2 3CLpro using Dabcyl-KTSAVLQSGFRKM-Glu(Edans) as substrate preincubated for 30 mins followed by substrate addition and measured after 30 mins by FRET assay.
Series [6] addresses T2, Replicase polyprotein 1ab. Description: Inhibition of SARS-CoV-2 3CLpro using Dabcyl-KTSAVLQSGFRKM-Glu(Edans) as substrate preincubated for 60 mins in absence of GSH followed by substrate addition and measured after 30 mins by FRET assay.
Series [7] deals with Replicase polyprotein 1ab (Severe acute respiratory syndrome coronavirus 2) (UniProt P0DTD1). The experiment in a line: Binding affinity to 2H,15N-labelled SARS-CoV-2 3CLpro substrate binding pocket assessed as chemical shift perturbations at interface of domains I and II at 500 uM by 2D 1H,15N-HSQC NMR analysis.
Series [8] in a line: Inhibition of C-terminal 6-His tagged recombinant SARS-CoV 3CLpro (Ser1 to Gln306 residues) extracted from Escherichia coli using Dabcyl-KTSAVLQSGFRKM-Glu(Edans) as substrate preincubated 1 hr in presence of 2 mM GSH followed by substrate addition and measured after 30 mins by FRET assay. More on the design: species or system Severe acute respiratory syndrome-related coronavirus.

A short description of series [9]: Inhibition of MERS-CoV 3CLpro using Dabcyl-KTSAVLQSGFRKM-Glu(Edans) as substrate preincubated 1 hr in presence of 2 mM GSH followed by substrate addition and measured after 30 mins by FRET assay. More on the design: species or system Middle East respiratory syndrome-related coronavirus.
The target in series [10] is T2, Replicase polyprotein 1ab. The experiment in a line: Inhibition of SARS-CoV-2 3CLpro using Dabcyl-KTSAVLQSGFRKM-Glu(Edans) as substrate preincubated for 60 mins in presence of GSH followed by substrate addition and measured after 30 mins by FRET assay.
The target in series [11] is Replicase polyprotein 1ab (Human coronavirus 229E, UniProt P0C6X1). Description: Inhibition of hCoV-229E 3CLpro using Dabcyl-KTSAVLQSGFRKM-Glu(Edans) as substrate preincubated 1 hr in presence of 2 mM GSH followed by substrate addition and measured after 30 mins by FRET assay.
Series [12] can be described thus: GSH reactivity in HEPES buffer at pH 7.4 assessed as half life at 1 uM. It counts as ADME. The conditions noted are these: glutathione (GSH) in HEPES buffer.
The test system of a further series is SARS-CoV-2. The experiment in a line: microbe, parasite or virus in culture. The conditions noted are these: Severe acute respiratory syndrome coronavirus 2, Vero.
For series [13], the target named is Replicase polyprotein 1ab (Severe acute respiratory syndrome coronavirus 2) (UniProt P0DTD1). Description: Reversible inhibition of SARS-CoV-2 3CLpro using Dabcyl-KTSAVLQSGFRKM-Glu(Edans) as substrate at 10 times IC50 preincubated for 1 hr followed by 100-fold dilution to 0.1 times IC50 with substrate solution by jump dilution assay.

Molecules are shown by their SMILES. Activity calls are given as the source filed them. The rule behind the calls is not given here.

A word on the EC50: it is the midpoint of the concentration-response curve. Low values mean an effect from little substance, high ones a need for much substance. As usually defined, the ΔTm is the change in melting temperature against a reference sample. One may read the pIC50 as −log10 of the IC50, conventionally taken in molar units. For orientation: half-life means the time in which the quantity being followed falls by half.

Replicase polyprotein 1ab (Human coronavirus 229E, UniProt P0C6X1), sequence (P0C6X1 2966-3267 limits assumed): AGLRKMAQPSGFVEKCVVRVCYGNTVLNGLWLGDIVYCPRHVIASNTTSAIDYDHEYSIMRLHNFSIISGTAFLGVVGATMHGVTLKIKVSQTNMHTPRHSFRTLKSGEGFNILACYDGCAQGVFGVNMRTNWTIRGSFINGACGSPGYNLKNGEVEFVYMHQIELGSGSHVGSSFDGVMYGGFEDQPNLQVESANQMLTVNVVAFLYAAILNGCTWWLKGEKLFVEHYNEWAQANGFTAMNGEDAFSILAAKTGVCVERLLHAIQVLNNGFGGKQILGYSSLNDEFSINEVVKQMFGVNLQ

With `CSc1nc2cc3c(cc2n1C(=O)c1ccc(C)cc1)OCCO3`, the IC50 was > 100000 nM in [1]; 140 nM in series [2]; > 100000 nM in series [4]; 140 nM in series [5]; 380 nM in [6] (read-out: IC50); 1700 nM in series [8]. Further, the IC50 in series [9] came out at 2500 nM; in series [10] (read-out: IC50), 390 nM; in series [11] it was 190 nM. Besides, the EC50 in the series on Human coronavirus 229E came out at 7300 nM. Further, the ΔTm in series [3] came out at 1.47 °C. Besides, the outcome in series [7] was Active. Further, the values for the pIC50 in series [8] and in series [9] were 5.77 and 5.6, respectively.
For the molecule `CSc1nc2cc3c(cc2n1C(=O)c1ccc(C)cc1)OCO3`, the half-life at 1 µM in series [12] was found to be 16 min. Also, the IC50 in series [1] was > 100000 nM; in series [2] it was 70 nM; in series [4], > 100000 nM; in series [6] (read-out: pIC50 (converted)), 85.1 nM; in series [8], 150 nM; in series [9], 990 nM. The results for the IC50 in series [10] (read-out: pIC50 (converted)) and in [11] were 120 nM and 750 nM, respectively. Besides, the EC50 came out at 4800 nM in the series on Human coronavirus 229E and 3100 nM in the series on SARS-CoV-2. Further, the results for the pIC50 in series [8] and in series [9] were 6.82 and 6.01, respectively. Besides, the inhibition result in [13] was “Active”.

Values taken from ChEMBL document CHEMBL5608212, “N-acylbenzimidazoles as selective Acylators of the catalytic cystein of the coronavirus 3CL protease” (Eur J Med Chem, 2024).
